Test results published in PMC3971658 (The Journal of General Physiology, 2014).

What was measured:
[1] = tested on: Rabbit Cav2.1; type: cell-based; details: 50 µM
[2] = tested on: Human Cav2.3d; type: cell-based; details: 50 µM
[3] = tested on: human Cav2.1 (α1A-2) channel alone; type: cell-based; details: 50 µM
[4] = tested on: R-type current, rat DRG neurons; type: cell-based
[5] = tested on: Human Cav2.1; type: cell-based; details: 50 µM
[6] = tested on: human Cav2.3c (α1E-c) channel alone; type: cell-based; details: 50 µM
[7] = tested on: R-type current, thalamocortical neurons; details: cited from earlier work
[8] = tested on: human Cav2.3c channel and GABABR
[9] = tested on: c-Src / human Cav2.1 channel and GABABR; type: cell-based
[10] = tested on: Human Cav2.3c; type: cell-based; details: 50 µM

With NCC(CC(=O)O)c1ccc(Cl)cc1 (stereo not shown) [Baclofen, baclofen] the IBa inhibition [1] was “^#50.0 ± 5.0 (8) %”, the IBa inhibition [2] was 33.1 ± 1.8 (8) % and the IBa inhibition [3] was 0 (5) %. For the same molecule, the R-type current inhibition [4] was “R-type current inhibition by baclofen”, the IBa inhibition [5] was 44.4 ± 1.9 (9) % and the IBa inhibition [6] was 0 (6) %. For the same molecule, the R-type current modulation [7] was “R-type current modulation by baclofen has been demonstrated”, the “V0.5,act” value [8] was −3.44 ± 0.67 mV and the “baclofen inhibition of IBa with wild-type c-Src overexpression or pp60c-Src peptide” value [9] was “did not affect baclofen inhibition of IBa”. The IBa inhibition [10] was 44.0 ± 3.0 (10) %.
